Test results: ChEMBL document CHEMBL4251606, “Design and characterization of α-lipoic acyl shikonin ester twin drugs as tubulin and PDK1 dual inhibitors” (Eur J Med Chem, 2018)
Calls of active or inactive are those of the source. The rule behind the calls is not given here.

Tests used:
HepG2 = assay: Antiproliferative activity against human HepG2 cells after 24 hrs by MTT assay; assay type: functional, cell-based; conditions: HepG2, 24 h
MDA-MB-231 = assay: Antiproliferative activity against human MDA231 cells after 24 hrs by MTT assay; assay type: functional, cell-based; conditions: MDA-MB-231, 24 h
HeLa [1] = assay: Antiproliferative activity against human HeLa cells after 24 hrs by MTT assay; assay type: functional, cell-based
A549 = assay: Antiproliferative activity against human A549 cells after 24 hrs by MTT assay; assay type: functional, cell-based; conditions: A549, 24 h
L02 = assay: Antiproliferative activity against human LO2 cells after 24 hrs by MTT assay; assay type: cell-based; conditions: L02, 24 h
HEK-293T = assay: Antiproliferative activity against human 293T cells after 24 hrs by MTT assay; assay type: cell-based
HeLa [2] = assay: Cell cycle arrest in human HeLa cells assessed as accumulation of cells at G1 phase at 1 uM after 24 hrs by propidium iodide staining-based FACScan flow cytometric analysis (reference value: 64.58%); assay type: functional
HeLa [3] = assay: Cell cycle arrest in human HeLa cells assessed as accumulation of cells at S phase at 1 uM after 24 hrs by propidium iodide staining-based FACScan flow cytometric analysis (reference value: 20.45%); assay type: functional
HeLa [4] = assay: Cell cycle arrest in human HeLa cells assessed as accumulation of cells at G2/M phase at 1 uM after 24 hrs by propidium iodide staining-based FACScan flow cytometric analysis (reference value: 14.97%); assay type: functional
HeLa [5] = assay: Cell cycle arrest in human HeLa cells assessed as accumulation of cells at G1 phase at 2 uM after 24 hrs by propidium iodide staining-based FACScan flow cytometric analysis (reference value: 64.58%); assay type: functional
HeLa [6] = assay: Cell cycle arrest in human HeLa cells assessed as accumulation of cells at S phase at 2 uM after 24 hrs by propidium iodide staining-based FACScan flow cytometric analysis (reference value: 20.45%); assay type: functional
HeLa [7] = assay: Cell cycle arrest in human HeLa cells assessed as accumulation of cells at G2/M phase at 2 uM after 24 hrs by propidium iodide staining-based FACScan flow cytometric analysis (reference value: 14.97%); assay type: functional
HeLa [8] = assay: Cell cycle arrest in human HeLa cells assessed as accumulation of cells at G1 phase at 4 uM after 24 hrs by propidium iodide staining-based FACScan flow cytometric analysis (reference value: 64.58%); assay type: functional
HeLa [9] = assay: Cell cycle arrest in human HeLa cells assessed as accumulation of cells at S phase at 4 uM after 24 hrs by propidium iodide staining-based FACScan flow cytometric analysis (reference value: 20.45%); assay type: functional
HeLa [10] = assay: Cell cycle arrest in human HeLa cells assessed as accumulation of cells at G2/M phase at 4 uM after 24 hrs by propidium iodide staining-based FACScan flow cytometric analysis (reference value: 14.97%); assay type: functional
HeLa [11] = assay: Inhibition of microtubule polymerization in human HeLa cells at 4 uM after 24 hrs by rhodamine/DAPI staining-based confocal microscopic analysis; assay type: cell-based
HeLa [12] = assay: Antitumor activity against human HeLa cells xenografted in nude mouse assessed as reduction in tumor size at 1 mg/kg, ip administered once in every 2 days for 15 days relative to control; assay type: functional, organism-based
Mus musculus = assay: Toxicity in nude mouse xenografted with human HeLa cells assessed as loss in body weight at 1 mg/kg, ip administered once in every 2 days for 15 days; assay type: organism-based; conditions: in vivo
[13] = molecular target: [Pyruvate dehydrogenase (acetyl-transferring)] kinase isozyme 1, mitochondrial (Homo sapiens) (UniProt Q15118); conditions: HeLa, 10 mM
Description: Inhibition of PDK1 in human HeLa cells assessed as increase in PDH-E1 alpha expression at 10 mM by Western blot analysis

[14] = molecular target: [Pyruvate dehydrogenase (acetyl-transferring)] kinase isozyme 1, mitochondrial (Homo sapiens) (UniProt Q15118); conditions: HeLa, 10 mM; remark: listed apart in the source
Description: Inhibition of PDK1 in human HeLa cells assessed as decrease in PDH-E1 alpha p-ser300 expression at 10 mM by Western blot analysis

[15] = molecular target: [Pyruvate dehydrogenase (acetyl-transferring)] kinase isozyme 1, mitochondrial (Homo sapiens) (UniProt Q15118); conditions: HeLa, 10 mM; remark: listed apart in the source
Description: Inhibition of PDK1 in human HeLa cells assessed as decrease in PDH-E1 alpha p-ser232 expression at 10 mM by Western blot analysis

HeLa [16] = assay: Induction of microtubule polymerization in human HeLa cells assessed as bundle like formation at 0.5 uM after 24 hrs by rhodamine/DAPI staining-based confocal microscopic analysis; assay type: cell-based
Homo sapiens [17] = species: Homo sapiens; assay: Induction of microtubule polymerization (unknown origin) at 0.5 uM after 24 hrs by immunoblot
HeLa [18] = assay: Inhibition of microtubule polymerization in human HeLa cells at 0.5 uM after 24 hrs by rhodamine/DAPI staining-based confocal microscopic analysis; assay type: cell-based
Homo sapiens [19] = species: Homo sapiens; assay: Inhibition of microtubule polymerization (unknown origin) at 0.5 uM after 24 hrs by immunoblot

Compound | IC50 (HepG2) [µM] | IC50 (MDA-MB-231) [µM] | IC50 (HeLa [1]) [µM] | IC50 (A549) [µM] | IC50 (L02) [µM] | IC50 (HEK-293T) [µM] | also measured
CC(C)=CC[C@@H](O)C1=CC(=O)c2c(O)ccc(O)c2C1=O [SHIKONIN] | 6.92 | 8.75 | 6.86 | 3.53 | 3.41 | 62.8 | Activity (HeLa [2]): 63.83%; Activity (HeLa [3]): 17.42%; Activity (HeLa [4]): 18.75%; Activity (HeLa [5]): 62.72%; Activity (HeLa [6]): 13.25%; Activity (HeLa [7]): 24.03%; Activity (HeLa [8]): 57.75%; Activity (HeLa [9]): 14.13%; Activity (HeLa [10]): 28.12%; inhibition (HeLa [11]): Active; Activity (HeLa [12]): Active; Activity (Mus musculus): Toxic
COc1ccc(C2SCC[C@@H](CCCCC(=O)O[C@H](CC=C(C)C)C3=CC(=O)c4c(O)ccc(O)c4C3=O)S2)cc1 (some centres undefined) | 30.1 | 18 | 16 | 20.7 | 94.8 | 105 | –
CC(C)=CC[C@@H](OC(=O)CCCC[C@@H]1CCSC(c2cccc(Br)c2)S1)C1=CC(=O)c2c(O)ccc(O)c2C1=O (some centres undefined) | 21.9 | 26.8 | 13.3 | 22.2 | 93 | 102 | –
CC(C)=CC[C@@H](OC(=O)CCCC[C@@H]1CCSC(c2cccc(C(F)(F)F)c2)S1)C1=CC(=O)c2c(O)ccc(O)c2C1=O (some centres undefined) | 4.53 | 35.1 | 20.2 | 19.6 | 136 | 83.9 | –
CC(C)=CC[C@@H](OC(=O)CCCC[C@@H]1CCSC(c2ccc([N+](=O)[O-])cc2)S1)C1=CC(=O)c2c(O)ccc(O)c2C1=O (some centres undefined) | 20.4 | 16.2 | 26.9 | 22.2 | 96.2 | 95.4 | –
CC(C)=CC[C@@H](OC(=O)CCCC[C@@H]1CCSC(c2ccc(Cl)cc2)S1)C1=CC(=O)c2c(O)ccc(O)c2C1=O (some centres undefined) | 6.69 | 17.7 | 21.4 | 7.42 | 83.6 | 64.7 | –
CC(C)=CC[C@@H](OC(=O)CCCC[C@@H]1CCSC(C2CCCCC2)S1)C1=CC(=O)c2c(O)ccc(O)c2C1=O (some centres undefined) | 28.4 | 19.6 | 21.9 | 27.2 | 108 | 116 | –
CC(C)=CC[C@@H](OC(=O)CCCC[C@@H]1CCSS1)C1=CC(=O)c2c(O)ccc(O)c2C1=O | 17.4 | 25.9 | 28.9 | 14.6 | 103 | 83.5 | –
CC(C)=CC[C@@H](OC(=O)CCCC[C@@H]1CCSC(c2ccc(C(F)(F)F)cc2)S1)C1=CC(=O)c2c(O)ccc(O)c2C1=O (some centres undefined) | 11.8 | 9.57 | 23.4 | 10.2 | 90.9 | 73.4 | –
CC(C)=CC[C@@H](OC(=O)CCCC[C@@H]1CCSC(c2ccccc2Cl)S1)C1=CC(=O)c2c(O)ccc(O)c2C1=O (some centres undefined) | 11.3 | 20.6 | 16.5 | 16.8 | 95.8 | 78 | –
O=C(O)C(Cl)Cl [DICHLOROACETIC ACID] | > 100 | > 100 | > 100 | > 100 | > 100 | > 100 | inhibition [13]: Active; inhibition [14]: Active; inhibition [15]: Active
CC(C)=CC[C@@H](OC(=O)CCCC[C@@H]1CCSC(c2c(Cl)cccc2Cl)S1)C1=CC(=O)c2c(O)ccc(O)c2C1=O (some centres undefined) | 14.9 | 29.2 | 8.95 | 10.4 | 79.8 | 69.9 | –
CC(C)=CC[C@@H](OC(=O)CCCC[C@@H]1CCSC(c2ccccc2C)S1)C1=CC(=O)c2c(O)ccc(O)c2C1=O (some centres undefined) | 24.3 | 17.4 | 14.9 | 10 | 89.8 | 102 | –
CC(C)=CC[C@@H](OC(=O)CCCC[C@@H]1CCSC(c2ccc(C(C)C)cc2)S1)C1=CC(=O)c2c(O)ccc(O)c2C1=O (some centres undefined) | 25.9 | 8.97 | 17.5 | 19.6 | 85.6 | 108 | –
COc1ccc(C2SCC[C@@H](CCCCC(=O)O[C@H](CC=C(C)C)C3=CC(=O)c4c(O)ccc(O)c4C3=O)S2)cc1OC (some centres undefined) | 4.34 | 16.7 | 21.9 | 19.3 | 99.3 | 116 | –
CC(C)=CC[C@@H](OC(=O)CCCC[C@@H]1CCSC(c2cccc(Cl)c2Cl)S1)C1=CC(=O)c2c(O)ccc(O)c2C1=O (some centres undefined) | 5.08 | 25.8 | 13.6 | 10.7 | 119 | 97.8 | –
CC(=O)O[C@H]1C(=O)[C@@]2(C)[C@H]([C@H](OC(=O)c3ccccc3)[C@]3(O)C[C@H](OC(=O)[C@H](O)[C@@H](NC(=O)c4ccccc4)c4ccccc4)C(C)=C1C3(C)C)[C@]1(OC(C)=O)CO[C@@H]1C[C@@H]2O | – | – | – | – | – | – | Activity (HeLa [16]): Active; Activity (Homo sapiens [17]): Active
COc1ccccc1C1SCC[C@@H](CCCCC(=O)O[C@H](CC=C(C)C)C2=CC(=O)c3c(O)ccc(O)c3C2=O)S1 (some centres undefined) | 26.7 | 24.2 | 9.96 | 6.03 | 116 | 79.3 | –
CC(C)=CC[C@@H](OC(=O)CCCC[C@@H]1CCSC(c2ccc(C)cc2)S1)C1=CC(=O)c2c(O)ccc(O)c2C1=O (some centres undefined) | 45.7 | 11.9 | 11.5 | 12.1 | 85.6 | 88.6 | –
CC(C)=CC[C@@H](OC(=O)CCCC[C@@H]1CCSC(c2ccc(Cl)cc2Cl)S1)C1=CC(=O)c2c(O)ccc(O)c2C1=O (some centres undefined) | 17.8 | 28 | 9.17 | 17.5 | 121 | 90.1 | –
COc1cc2c(c(OC)c1OC)-c1ccc(OC)c(=O)cc1[C@@H](NC(C)=O)CC2 [COLCHICINE] | 4.65 | 3.89 | 2.54 | 4.64 | 3.01 | 6.38 | inhibition (HeLa [18]): Active; inhibition (Homo sapiens [19]): Active
